Counter-ions that a name gives are not always drawn.
Legend:
[1] = tested on: VCAM-1; assay: VCAM-1 ELISA on lysates of TNF-α stimulated HUVECs; format: cell-based; conditions: Homo sapiens, HUVEC, approx. 16 hours
Procedure: (§1) Compounds were dissolved in DMSO, aliquoted, and stored at −20° C. Cultured human vascular endothelial cells (HUVECs) were seeded in 96-well plates in complete EGM-2 media (˜100 μL/well); cells were plated at ˜2-3×10^5/mL, and were from passage 8 to 12. Cells were incubated overnight. On the following day cells are stimulated with TNF-α (˜1 ng/mL) in the presence or absence of compounds dissolved in DMSO. Triplicate wells were used for each test. To establish a dose curve and an IC50, multiple concentrations in 2- to 5-fold increments were used. Cells were exposed to TNF-α and compounds for approximately 16 hours. The next day, cells were visually examined via light microscopy to score for visual signs of toxicity. Cell culture media was analyzed using an MCP-1 ELISA. Cells were refed (−100 μL/well) with 20% CellTiter 96. Aqueous One Cell Proliferation Solution (Promega), 80% EGM-2 medium. Media optical density (at 490 nm) was determined after 1 hour. Plates were aspirated and cell lysates were prepared and these lysates were tested using a VCAM-1 ELISA.
(§2) In Table 2, a positive result (+) was defined as at least 50% inhibition of the protein levels MCP-1 or VCAM-1, as determined by the ELISA.

[2] = tested on: Human coronary artery smooth muscle cells (CASMCs); assay: Smooth muscle cell proliferation protocol; format: cell-based; conditions: 72 hours, read-out: % Inhibition of SMC Proliferation
Procedure: Compounds were dissolved in DMSO, aliquoted, and stored at −20° C. Human coronary artery smooth muscle cells (CASMCs) were plated in 96-well plates and were grown in SmBM-2 media. After 1-2 hours, media was aspirated and replaced with serum-free ME/F12 media, except the controls. Cells were incubated for a further 48 hours. Compounds were diluted in DME/F12 containing 10% FBS. Media was aspirated from the plates and compounds in DME/F12 containing 10% FBS. Six wells were used per condition and duplicate plates were used. Cells were incubated for a further 72 hours. Media was aspirated from one set of plates; those cells were refed (˜100 μL/well) with 20% CellTiter 96 Aqueous One Cell Proliferation Solution (Promega), 80% EGM-2 medium. Media optical density (at 490 nm) was determined after 3-4 hours. In the second set of plates, serum-free DME/F12 media (20 μL) was added to each well. Part of the supernatant (50 μL) was removed and placed in an ELISA plate and was stored temporarily at 4° C. The remaining media and cells in the second set of plates were freeze-thawed for four cycles. The lysates and supernatants were mixed and centrifuged. Part of the supernatant (50 μL) was removed and placed in an ELISA plate. The Promega Cytotox assay was performed on the ELISA plates. The ratio of supernatant OD to supernatant+cell lysate OD was determined.
In Table 2, a positive result (+) was defined as at least 40% inhibition of the proliferation of SMC, as determined by the assay.

[3] = tested on: MCP-1; assay: MCP-1 ELISA on culture media of TNF-α stimulated HUVECs; format: cell-based; conditions: Homo sapiens, HUVEC, approx. 16 hours
Procedure: as §1, §2

SMILES	inhibition at 50 µM [1] [%]	inhibition at 50 µM [2] [%]	inhibition at 50 µM [3] [%]	further results
CN(C)CCOc1ccc(-c2cc(=O)c3cccnc3o2)cc1 [EXAMPLE 27, 2-(4-(2-(dimethylamino)ethoxy)phenyl)-4H-pyrano[2,3-b]pyridin-4-one dihydrochloride]	< 50	≥ 40	< 50	
CC(C)Oc1ccc(-c2cc(=O)c3cc(CN4CCCC4)cnc3o2)cc1 [EXAMPLE 39, 2-(4-isopropoxyphenyl)-6-(pyrrolidin-1-ylmethyl)-4H-pyrano[2,3-b]pyridinone hydrochloride]	≥ 50	≥ 40	≥ 50	
CNc1nc(-c2cc(C)c(O)c(C)c2)cc2ccc(CN3CCN(C)CC3)cc12 [EXAMPLE 43, 2,6-dimethyl-4-(1-(methylamino)-7-((4-methylpiperazin-1-yl)methyl)isoquinolin-3-yl)phenol trihydrochloride]	≥ 50	≥ 40	≥ 50	
O=c1cc(-c2ccc(F)cc2)oc2ncc(CN3CCCC3)cc12 [EXAMPLE 37, 2-(4-fluorophenyl)-6-(pyrrolidin-1-ylmethyl)-4H-pyrano[2,3-b]pyridin-4-one hydrochloride]	≥ 50	≥ 40	< 50	
O=c1cc(-c2ccc(F)cc2)oc2ncc(CN3CCCC3)cc12 (as salt: hydrochloride) [EXAMPLE 37, 2-(4-fluorophenyl)-6-(pyrrolidin-1-ylmethyl)-4H-pyrano[2,3-b]pyridin-4-one hydrochloride]				melting point: 265 to 268 °C
Oc1ccc(C=Cc2cc(O)cc(O)c2)cc1 [Resveratrol, resveratrol, reference compound]	54		47	
O=c1cc(-c2ccccc2)oc2ncc(CN3CCCC3)cc12 [EXAMPLE 35, 2-phenyl-6-(pyrrolidin-1-ylmethyl)-4H-pyrano[2,3-b]pyridin-4-one hydrochloride]	< 50	≥ 40	< 50	
O=c1cc(-c2ccncc2)oc2ccccc12 [EXAMPLE 12, 2-Pyridin-4-yl-chromen-4-one]	≥ 50	≥ 40	≥ 50	
COc1cc(OC)c2c(=O)cc(-c3ccncc3)oc2c1 [EXAMPLE 34, 5,7-dimethoxy-2-(pyridin-4-yl)-4H-chromen-4-one hydrochloride]	< 50	≥ 40	< 50	
COc1cc(O)nc2cc(-c3cc(C)c(O)c(C)c3)[nH]c(=O)c12 [EXAMPLE 41, 2-hydroxy-7-(4-hydroxy-3,5-dimethylphenyl)-4-methoxy-1,6-naphthyridin-5(6H)-one dihydrochloride]	≥ 50	≥ 40	≥ 50	
Cc1cc(-c2cc(=O)c3cc(CN4CCCC4)cnc3o2)cc(C)c1O [EXAMPLE 33, 2-(4-hydroxy-3,5-dimethylphenyl)-6-(pyrrolidin-1-ylmethyl)-4H-pyrano[2,3-b]pyridin-4-one dihydrochloride]	< 50	≥ 40	≥ 50	
O=c1cc(-c2ccc(O)cc2)[nH]c2ccccc12 [EXAMPLE 14, 2-(4-Hydroxy-phenyl)-1H-quinolin-4-one]	≥ 50	< 40	≥ 50	
O=c1cc(-c2ccc(O)cn2)oc2ccccc12 [EXAMPLE 11, 2-(5-Hydroxy-pyridin-2-yl)chromen-4-one]	< 50	< 40	< 50	
O=c1cc(-c2ccncc2)oc2cccc(CO)c12 [EXAMPLE 51, 5-(hydroxymethyl)-2-(pyridin-4-yl)-4H-chromen-4-one]	< 50	< 40	< 50	
Cc1cc(-c2cc(=O)c3cccnc3o2)cc(C)c1OCCN1CCOCC1 [EXAMPLE 31, 2-(3,5-dimethyl-4-(2-morpholinoethoxy)phenyl)-4H-pyrano[2,3-b]pyridin-4-one hydrochloride]	≥ 50	≥ 40	< 50	
Cc1cccc2oc(-c3ccncc3)cc(=O)c12 [EXAMPLE 49, 5-methyl-2-(pyridin-yl)-4H-chromen-4-one]				inhibition at 10 µM [1]: < 50%; inhibition at 10 µM [2]: < 40%; inhibition at 10 µM [3]: < 50%
O=c1cc(-c2ccc(O)cc2)oc2cccnc12 [EXAMPLE 2, 2-(4-Hydroxy-phenyl)-pyrano[3,2-b]pyridin-4-one]	< 50	≥ 40	< 50	
O=c1cc(-c2ccc(O)cc2)oc2ncccc12 [EXAMPLE 1, 2-(4-Hydroxy-phenyl)-pyrano[2,3-b]pyridin-4-one]	≥ 50	< 40	< 50	
Cc1cc(-c2cc3ncccc3c(=O)[nH]2)cc(C)c1O [EXAMPLE 40, 7-(4-hydroxy-3,5-dimethylphenyl)-1,6-naphthyridin-5(6H)-one hydrochloride]	< 50	≥ 40	< 50	
CC(=O)O[C@H]1C(=O)[C@@]2(C)[C@H]([C@H](OC(=O)c3ccccc3)[C@]3(O)C[C@H](OC(=O)[C@H](O)[C@@H](NC(=O)c4ccccc4)c4ccccc4)C(C)=C1C3(C)C)[C@]1(OC(C)=O)CO[C@@H]1C[C@@H]2O [Taxol, taxol, reference compound]				inhibition at 0.1 µM ([2]; 100 nM): 19%
COc1cc(OC)c2c(=O)[nH]c(-c3cc(C)c(OCCN4CCOCC4)c(C)c3)cc2c1 [EXAMPLE 48, 3-(3,5-dimethyl-4-(2-morpholinoethoxy)phenyl)-6,8-dimethoxyisoquinolin-1(2H)-one]	≥ 50	≥ 40	< 50	
CN(C)Cc1ccc2c(=O)cc(-c3ccc(O)cc3)oc2n1 [EXAMPLE 26, 7-((dimethylamino)methyl-2-(4-hydroxyphenyl)-4H-pyrano[2,3-b]pyridin-4-one dihydrochloride]	< 50	≥ 40	< 50	
CC(C)(Sc1cc(C(C)(C)C)c(O)c(C(C)(C)C)c1)Sc1cc(C(C)(C)C)c(O)c(C(C)(C)C)c1 [Probucol, probucol, reference compound]				inhibition at 10 µM [1]: 19%; inhibition at 10 µM [3]: 15%
CN(C)Cc1ccc2oc(-c3ccncc3)cc(=O)c2c1 [EXAMPLE 50, 6-((dimethylamino)methyl)-2-(pyridinyl)-4H-chromen-4-one]	< 50	≥ 40	< 50	
CO[C@H]1C[C@@H]2CC[C@@H](C)[C@@](O)(O2)C(=O)C(=O)N2CCCC[C@H]2C(=O)O[C@H]([C@H](C)C[C@@H]2CC[C@@H](O)[C@H](OC)C2)CC(=O)[C@H](C)/C=C(\C)[C@@H](O)[C@@H](OC)C(=O)[C@H](C)C[C@H](C)/C=C/C=C/C=C/1C [Rapamycin, rapamycin, reference compound]		43		
Nc1ccc(-c2cc(=O)c3cccnc3o2)cc1 [EXAMPLE 38, 2-(4-aminophenyl)-4H-pyrano[2,3-b]pyridin-4-one hydrochloride]	< 50	≥ 40	< 50	
CC(C)(Sc1cc(C(C)(C)C)c(O)c(C(C)(C)C)c1)Sc1cc(C(C)(C)C)c(OC(=O)CCC(=O)O)c(C(C)(C)C)c1 [AGI1067, reference compound]				inhibition at 5 µM ([1]; 5 uM): 68%; inhibition at 5 µM ([3]; 5 uM): 60%
O=C1C=C(c2ccc(O)cc2)C(=O)c2ccccc21 [EXAMPLE 20, 2-(4-Hydroxy-phenyl)-[1,4]naphthoquinone]				inhibition at 10 µM [1]: ≥ 50%; inhibition at 10 µM [2]: < 40%; inhibition at 10 µM [3]: < 50%
O=c1cc(-c2ccncc2)oc2ncccc12 [EXAMPLE 30, 2-(pyridin-4-yl)-4H-pyrano[2,3-b]pyridin-4-one hydrochloride]	< 50	≥ 40	< 50	

From patent publication US8410109B2, “Pharmaceutical compositions for the prevention and treatment of complex diseases and their delivery by insertable medical devices” (Resverlogix Corp., priority 2005, dated 2013)
